We go through 40 molecules from the supplement of paper PMC7224384.

The test system of assay [1] is MDA-MB-453. The assay can be described thus: drug sensitivity score (DSS), single agent (DSS (weighted AUC score)); higher = more sensitive (stronger viability decrease); extreme values may be limits of the assay. The note with it: BLU9931 0 nM; 72 h. The method in brief:
(§1)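 Each 384-well plate held compounds from the FIMM Oncology set, predispensed in singlicate at five 10-fold dilutions spanning a 10,000-fold range, and each well then received 2000 MDA-MB-453 cells in medium with or without an FGFR4 inhibitor at 100 nM final. Plates stayed at 37 °C, 5% CO2 for 72 h, after which cellular ATP was measured with CellTiterGlo 2.0. Readings were converted per plate into percent viability against control wells, and the drug sensitivity score was taken as a weighted area under a four-parameter logistic fit.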

Assay [2] relates to MDA-MB-453. The assay can be described thus: drug sensitivity score (DSS), in combination with BLU9931 (DSS (weighted AUC score)); higher = more sensitive (stronger viability decrease); extreme values may be limits of the assay. As to conditions: BLU9931 100 nM; 72 h. In outline:
as §1

As for `CC(C)(C)C[C@@H]1N[C@@H](C(=O)N[C@H]2CC[C@H](O)CC2)[C@H](c2cccc(Cl)c2F)[C@]12C(=O)Nc1cc(Cl)ccc12`, the drug sensitivity score was determined as 0.9 in the assay with MDA-MB-453 [1] and 0 in the assay on MDA-MB-453 [2].
Taken in the same sequence, the figures for `CC(C)(C)c1cc(NC(=O)Nc2ccc(Oc3ccnc4[nH]c(=O)cnc34)cc2F)n(-c2ccccc2)n1` were 7.9 and 6.7.
For `CC[C@@H]1[C@H](F)C(=O)N[C@@H]1COc1nccc2cc(C(N)=O)c(OC)cc12`, in that order: 2.9 and 0.4.
On to `CCc1cncnc1N1CCN(Cc2nc3ccc(C(F)(F)F)cc3[nH]2)CC1`, for which the drug sensitivity score in the assay with MDA-MB-453 [1] and in the assay on MDA-MB-453 [2] was 0.6 each time.
As to `CCn1c(-c2nonc2N)nc2cnc(Oc3cccc(NC(=O)c4ccc(OCCN5CCOCC5)cc4)c3)cc21`, the values for the drug sensitivity score in the assay with MDA-MB-453 [1] and with MDA-MB-453 [2] were 3.9 and 3.8, respectively.
For the molecule `CCn1cc(-c2ccnc3[nH]c(-c4cccc(CN(C)C)c4)cc23)c(-c2ccc(NC(=O)N(C)C)cc2)n1`, the drug sensitivity score in the assay with MDA-MB-453 [1] and in the assay with MDA-MB-453 [2] was 1 throughout.
Turning to `CN(C)CC#Cc1ccc(OCCCc2sc(N3CCc4cccc(C(=O)Nc5nc6ccccc6s5)c4C3)nc2C(=O)O)c(F)c1`, the drug sensitivity score turned out to be 6.6 in the assay with MDA-MB-453 [1] and 12 in the assay on MDA-MB-453 [2].
For `CN(c1ncccc1CNc1nc(Nc2ccc3c(c2)CC(=O)N3)ncc1C(F)(F)F)S(C)(=O)=O`, in that order: 3.9 and 3.9.
Taken in the same sequence, the figures for `CN1CCN(C2CCC(n3cc(-c4ccc(Oc5ccccc5)cc4)c4c(N)ncnc43)CC2)CC1` (stereo not given) were 8.4 and 9.3.
For `CNC(=O)c1ccc(C)c(-n2c(C)cc(OCc3ccc(F)cc3F)c(Br)c2=O)c1`, the drug sensitivity score stood at 0.1 in the assay on MDA-MB-453 [1] and 0 in the assay on MDA-MB-453 [2].
As for `CNC(=O)c1ccccc1Nc1nc(Nc2ccc3c(c2OC)CCC[C@H](N2CCN(CCO)CC2)C3)ncc1Cl`, the drug sensitivity score in the assay with MDA-MB-453 [1] was found to be 6.7; with MDA-MB-453 [2] it was 5.6.
As for `CNS(=O)(=O)Nc1nccc(Cc2c(C)c3ccc(Oc4ncccn4)cc3oc2=O)c1F`, the figures for the drug sensitivity score in the assay with MDA-MB-453 [1] and with MDA-MB-453 [2] were 0.5 and 0.2, respectively.
Taken in the same sequence, the figures for `CNc1nc(-c2ccc3c(N)n[nH]c3c2)cc(N2C[C@@H](C(=O)NC3CCCCC3)CC[C@H]2C)n1` were 4.8 and 3.9.
For `CNc1ncc2cc(-c3cc(NC(=O)NCCC(C)(C)C)c(F)cc3C)c(C)nc2n1`, in that order: 6.3 and 3.8.
As for `CONC(=O)c1ccccc1Nc1cc(Nc2cc(C)nn2C(C)C)ncc1Cl`, the drug sensitivity score with MDA-MB-453 [1] is 0.8; with MDA-MB-453 [2], 0.5.
`COc1cc2ncnc(Oc3cccc(NC(=O)Nc4cc(C(C)(C)C(F)(F)F)on4)c3)c2cc1OC`: the drug sensitivity score in the assay on MDA-MB-453 [1] was 5.1; in the assay with MDA-MB-453 [2], 3.2.
Taken in the same sequence, the figures for `COc1ccc(Cn2ccc3ccc(C(=O)NO)cc32)cc1` were 0.8 and 2.3.
For `COc1ccc2[nH]cc(/C=C3\C(=O)Nc4ccc(NC(=O)CCN5CCCCC5)cc43)c2c1`, in that order: 6.1 and 4.8.
For `C[C@@H](Oc1ccc2[nH]nc(/C=C/c3cnn(CCO)c3)c2c1)c1c(Cl)cncc1Cl`, in that order: 9 and 1.8.
Take `C[C@@H]1CN(CC(=O)Nc2ccc3c(c2)Cc2cccc(-c4cc(=O)cc(N5CCOCC5)o4)c2S3)C[C@H](C)O1`: the drug sensitivity score turned out to be 3.1 in the assay with MDA-MB-453 [1] and 3.4 in the assay with MDA-MB-453 [2].
For `C[C@H]1Oc2cc(cnc2N)-c2c(nn(C)c2C#N)CN(C)C(=O)c2ccc(F)cc21`, the drug sensitivity score was found to be 0 in the assay on MDA-MB-453 [1] and 2.1 in the assay with MDA-MB-453 [2].
Taken in the same sequence, the figures for `Cc1c(-c2c(-c3ccc(F)o3)sc3ncnc(O[C@H](Cc4ccccc4OCc4ccnn4CC(F)(F)F)C(=O)O)c23)ccc(OCCN2CCN(C)CC2)c1Cl` were 4.2 and 3.3.
For `Cc1c(-c2ccc(N3CCc4cccc(C(=O)Nc5nc6ccccc6s5)c4C3)nc2C(=O)O)cnn1CC12CC3CC(CC(C3)C1)C2`, in that order: 1.4 and 5.4.
Taken in the same sequence, the figures for `Cc1ccc(C(=O)N(CCCN)[C@@H](c2oc3cc(Cl)ccc3c(=O)c2Cc2ccccc2)C(C)C)cc1` were 5.3 and 1.8.
Take `Cc1cccc(CC(=O)N2CCc3c2ccc(-c2cn(C)c4ncnc(N)c24)c3F)n1`: the drug sensitivity score with MDA-MB-453 [1] worked out at 2.2; in the assay with MDA-MB-453 [2] it was 0.
For `Cc1ncc(Cl)cc1NCc1ccc(C(=O)N[C@@H](CC2CCCC2)C(=O)NC2CC2)s1`, in that order: 0 and 0.5.
Taken in the same sequence, the figures for `Cc1nn(C)c(COc2ccc(N3CCN(S(=O)(=O)N(C)C)CC3)cc2)c1-c1cccc2c(CCCOc3cccc4ccccc34)c(C(=O)O)n(CCN3CCOCC3)c12` were 5.8 and 5.8.
For `Cn1cc(-c2ccc(F)c(C(F)(F)F)c2)nc1C1CCN(c2ncnc3[nH]ncc23)CC1`, in that order: 1.8 and 3.9.
With `N#Cc1ccc(COC[C@H]2O[C@@H](n3c(NCc4ccc(Cl)c(Cl)c4)nc4c(N)ncnc43)[C@H](O)[C@@H]2O)cc1`, the drug sensitivity score in the assay with MDA-MB-453 [1] was 4.9; in the assay with MDA-MB-453 [2], 4.2.
Taken in the same sequence, the figures for `NCC(=O)Nc1ccc(-n2nc(C(F)(F)F)cc2-c2ccc3c(ccc4ccccc43)c2)cc1` were 2.1 and 0.
Take `NC[C@@](O)(c1ccc(Cl)cc1)c1ccc(-c2cn[nH]c2)cc1`: the drug sensitivity score in the assay with MDA-MB-453 [1] came out at 1.3; in the assay with MDA-MB-453 [2], 2.4.
In the case of `Nc1nccc(-c2c(-c3ccc(F)cc3)ncn2C2CCCCC2)n1`, the drug sensitivity score amounted to 1.1 in the assay with MDA-MB-453 [1] and 0.6 with MDA-MB-453 [2].
For `Nc1ncnc2c1c(COc1cccc(Cl)c1)nn2C1CCOCC1`, in that order: 0.9 and 0.9.
Take `O=C(NC[C@H](O)CN1CCc2ccccc2C1)c1cc(NC2COC2)ncn1`: the drug sensitivity score in the assay with MDA-MB-453 [1] came out at 3.9; with MDA-MB-453 [2] it was 4.3.
Taken in the same sequence, the figures for `O=C(NCc1ccncc1)C12CC3CC(C1)CC(c1ccc(Cl)cc1)(C3)C2` were 1.1 and 0.
With `O=C(NOC[C@H](O)CO)c1ccc(F)c(F)c1Nc1ccc(I)cc1F`, the drug sensitivity score with MDA-MB-453 [1] was 1.2; in the assay with MDA-MB-453 [2], 1.1.
As to `O=C(Nc1ccc2[nH]nc(-c3ccncc3)c2c1)[C@@H]1CCN(CC(=O)N2CCN(c3ccc(-c4ncccn4)cc3)CC2)C1`, the values for the drug sensitivity score in the assay on MDA-MB-453 [1] and in the assay with MDA-MB-453 [2] were 3.4 and 0, respectively.
For `O=C(O)c1ccc(-c2c[nH]c3ncc(-c4ccccc4)cc23)cc1C1CCCC1`, in that order: 1.4 and 0.5.
For `O=C(O)c1ccc(CN2CCC(CN[C@@H]3C[C@H]3c3ccccc3)CC2)cc1`, in that order: 0.3 and 0.
Taken in the same sequence, the figures for `O=c1[nH]c(C2CCCN2)nc2c1oc1ccc(Cl)cc12` (stereo not given) were 0 and 0.5.
